In ChEMBL document CHEMBL4665817, “Immobilized Metal Affinity Chromatography as a Drug Discovery Platform for Metalloenzyme Inhibitors” (J Med Chem, 2020):
Activity calls are given as the source filed them. The calls are words filed in the database; no cut-off is given here.

Columns and labels:
Details in all cases: dose 2.55 µmol
[1] = Binding affinity to Zinc ion at 2.55 umol in presence of DTT by immobilized metal-ion affinity chromatography
[2] = Binding affinity to Zinc ion assessed as performance ratio ratio by measuring product of accounting ratio and retention ratio at 2.55 umol by immobilized metal-ion affinity chromatography
[3] = Binding affinity to Nickel cation assessed as performance ratio ratio by measuring product of accounting ratio and retention ratio at 2.55 umol by immobilized metal-ion affinity chromatography
[4] = Binding affinity to Nickel cation assessed as retention ratio by measuring compound detected in elution fraction/total compound detected at 2.55 umol by immobilized metal-ion affinity chromatography
[5] = Binding affinity to Nickel cation assessed as accounting ratio by measuring total compound detected/total compound adsorbed at 2.55 umol by immobilized metal-ion affinity chromatography
[6] = Binding affinity to Gallium ion assessed as performance ratio ratio by measuring product of accounting ratio and retention ratio at 2.55 umol by immobilized metal-ion affinity chromatography
[7] = Binding affinity to Gallium ion assessed as retention ratio by measuring compound detected in elution fraction/total compound detected at 2.55 umol by immobilized metal-ion affinity chromatography
[8] = Binding affinity to gallium ion assessed as accounting ratio by measuring total compound detected/total compound adsorbed at 2.55 umol by immobilized metal-ion affinity chromatography
[9] = Binding affinity to Ferric ion assessed as performance ratio ratio by measuring product of accounting ratio and retention ratio at 2.55 umol by immobilized metal-ion affinity chromatography
[10] = Binding affinity to Ferric ion assessed as retention ratio by measuring compound detected in elution fraction/total compound detected at 2.55 umol by immobilized metal-ion affinity chromatography
[11] = Binding affinity to cupric ion assessed as performance ratio ratio by measuring product of accounting ratio and retention ratio at 2.55 umol by immobilized metal-ion affinity chromatography
[12] = Binding affinity to cupric ion assessed as retention ratio by measuring compound detected in elution fraction/total compound detected at 2.55 umol by immobilized metal-ion affinity chromatography
[13] = Binding affinity to cupric ion assessed as accounting ratio by measuring total compound detected/total compound adsorbed at 2.55 umol by immobilized metal-ion affinity chromatography
[14] = Binding affinity to zinc ion assessed as accounting ratio by measuring total compound detected/total compound adsorbed at 2.55 umol by immobilized metal-ion affinity chromatography
[15] = Binding affinity to Zinc ion assessed as retention ratio by measuring compound detected in elution fraction/total compound detected at 2.55 umol by immobilized metal-ion affinity chromatography
[16] = Binding affinity to ferric ion assessed as accounting ratio by measuring total compound detected/total compound adsorbed at 2.55 umol by immobilized metal-ion affinity chromatography

| Structure (SMILES) | Activity [1] | Ratio [2] | Ratio [3] | Ratio [4] | Ratio [5] | Ratio [6] | Ratio [7] | Ratio [8] | Ratio [9] | Ratio [10] | Ratio [11] | Ratio [12] | Ratio [13] | Ratio [14] | Ratio [15] | Ratio [16] |
| --- | --- | --- | --- | --- | --- | --- | --- | --- | --- | --- | --- | --- | --- | --- | --- | --- |
| O=C(N[C@H]1CCS[C@H]2CCC[C@@H](C(=O)O)N2C1=O)[C@H](Cc1ccccc1)SS[C@@H](Cc1ccccc1)C(=O)N[C@H]1CCS[C@H]2CCC[C@@H](C(=O)O)N2C1=O | inactive |  |  |  |  |  |  |  |  |  |  |  |  |  |  |  |
| CC1(C)Cc2c(-c3ccccc3)c(-c3ccc(Cl)cc3)c(CC(=O)O)n2C1 |  | 0.03 | 0.03 | 0.03 | 1.03 | 0.06 | 0.06 | 1.08 | 0.37 | 0.39 | 0 | 0 | 1.03 | 1.05 | 0.03 | 0.97 |
| Nc1ccccc1NC(=O)c1ccc(CNC(=O)OCc2cccnc2)cc1 |  | 0.01 | 0.21 | 0.6 | 0.35 | 0.01 | 0.01 | 0.98 | 0 | 0 | 0.01 | 0.02 | 0.59 | 0.83 | 0.01 | 0.99 |
| Cc1[nH]c2ccccc2c1CCNCc1ccc(/C=C/C(=O)NO)cc1 |  | 0.7 | 0.84 | 1 | 0.84 | 0 | 0 | 0 | 0.03 | 1 | 0.25 | 1 | 0.25 | 0.7 | 1 | 0.03 |
| COc1c(N2C[C@@H]3CCCN[C@@H]3C2)c(F)cc2c(=O)c(C(=O)O)cn(C3CC3)c12 |  | 1.05 | 0.89 | 1 | 0.89 | 0.02 | 0.14 | 0.16 | 0.15 | 0.73 | 0.24 | 0.95 | 0.25 | 1.05 | 1 | 0.21 |
| C[C@H](CSC(=O)c1ccccc1)C(=O)N1C[C@@H](Sc2ccccc2)C[C@H]1C(=O)O |  | 0.01 | 0.01 | 0.01 | 1.29 | 0.01 | 0.01 | 1.43 | 0 | 0 | 0 | 0 | 1.51 | 1.4 | 0.01 | 1.46 |
| NCCCC[C@H](N[C@@H](CCc1ccccc1)C(=O)O)C(=O)N1CCC[C@H]1C(=O)O |  | 0 | 0 | 0 | 0.72 | 0 | 0 | 0.93 | 0 | 0 | 0 | 0 | 0.88 | 0.89 | 0 | 0.9 |
| Cc1ccc(Cl)c(Nc2ccccc2C(=O)O)c1Cl |  | 0 | 0 | 0 | 0.96 | 0 | 0 | 1.01 | 0 | 0 | 0 | 0 | 1.05 | 0.97 | 0 | 0.99 |
| CC(=O)Nc1ccc(C(=O)Nc2ccccc2N)cc1 |  | 0 | 0.01 | 0.01 | 1 | 0 | 0 | 0.99 | 0 | 0 | 0 | 0 | 0.99 | 1.01 | 0 | 1.01 |
| C[C@H](CSSC[C@@H](C)C(=O)N1CCC[C@H]1C(=O)O)C(=O)N1CCCC1C(=O)O (stereo partly drawn) | inactive |  |  |  |  |  |  |  |  |  |  |  |  |  |  |  |
| O=C(N[C@H]1CCS[C@H]2CCC[C@@H](C(=O)O)N2C1=O)[C@@H](S)Cc1ccccc1 |  | 1.43 | 0.19 | 1 | 0.19 | 0 | 0 | 0 | 0 | 0 | 0 | 0 | 0 | 1.43 | 1 | 0 |
| C[C@H](N[C@@H](CCc1ccccc1)C(=O)O)C(=O)N1CCC[C@H]1C(=O)O |  | 0.01 | 0 | 0 | 0.81 | 0 | 0 | 1 | 0 | 0 | 0 | 0 | 0.99 | 0.98 | 0.01 | 1.02 |
| Nc1ccc(C(=O)O)c(O)c1 |  | 0 | 0 | 0 | 0.83 | 0.52 | 0.74 | 0.69 | 0.08 | 0.51 | 0 | 0 | 0.87 | 0.87 | 0 | 0.15 |
| C[C@H](CS)C(=O)N1CCC[C@H]1C(=O)O |  | 1.17 | 0 | 0 | 0 | 0 | 0 | 0 | 0 | 0 | 0 | 0 | 0 | 1.17 | 1 | 0 |
| C[C@H](CSS[C@@H](Cc1ccccc1)C(=O)N[C@H]1CCS[C@H]2CCC[C@@H](C(=O)O)N2C1=O)C(=O)N1CCC[C@H]1C(=O)O | inactive |  |  |  |  |  |  |  |  |  |  |  |  |  |  |  |
| O=c1cccccc1O |  | 0.97 | 0.7 | 1 | 0.7 | 0 | 0 | 0 | 0 | 0 | 1.26 | 1 | 1.26 | 0.97 | 1 | 0 |
| O=C(O)c1cc(/N=N/c2ccc(S(=O)(=O)Nc3ccccn3)cc2)ccc1O |  | 0.48 | 0.89 | 1 | 0.89 | 0.82 | 0.99 | 0.83 | 0.79 | 1 | 0.63 | 0.63 | 1 | 0.61 | 0.79 | 0.79 |
| O=C(/C=C/c1cccc(S(=O)(=O)Nc2ccccc2)c1)NO |  | 1.21 | 1.08 | 1 | 1.08 | 0.23 | 1 | 0.23 | 0 | 0 | 0.13 | 1 | 0.13 | 1.21 | 1 | 0 |
| O=C(CCCCCCC(=O)Nc1ccccc1)NO |  | 1.19 | 1.14 | 1 | 1.14 | 0.41 | 1 | 0.41 | 0 | 0 | 0.08 | 0.61 | 0.14 | 1.19 | 1 | 0 |
